What was measured:
[1] = test system: bloodstream forms of T. b. brucei (427-221a clone); assay: microbe, parasite or virus in culture; conditions: for selectivity GI50 ratio: GI50(HL-60)/GI50(T. brucei); for GI50: Trypanosoma brucei, 72 h, read-out: T. brucei GI50, bloodstream forms, 72 h total (24 h + 48 h with resazurin), mean ± SD of three independent experiments
Method: (§1) The trypanocidal and cytotoxic activities of the newly synthesized IVR bioconjugates and their conjugation partners were determined for bloodstream forms of T. brucei brucei and human myeloid HL-60 cells in vitro using the resazurin cell viability assay as previously described.
(§2) Test compounds were assayed at 10-fold dilutions ranging from 100 μM to 1 nM in the presence of 0.9% DMSO. Controls were grown in the culture medium containing only 0.9% DMSO. The assays were cultured in an incubator at 37 °C in a humidified atmosphere containing 5% CO2. After 24 h incubation, 20 μL of 0.5 mM resazurin (prepared in sterile PBS) was added, and the cultures were grown for another 48 h. Then, the proliferation of the cells was determined by measuring the absorbance at 570 nm (test wavelength) and 630 nm (reference wavelength) using a microplate reader.

[2] = test system: human promyelocytic leukemia HL-60 cells; assay: Cytotoxic activity, resazurin cell viability assay; format: cell-based; conditions: 72 h total (24 h + 48 h with resazurin), mean ± SD of three independent experiments
Method: as §1, §2

[3] = test system: A549, human lung cancer cell line; assay: Antiproliferative activity, MTT assay; format: cell-based; conditions: for IC50: Homo sapiens, A549, 72 h, MTT, mean ± SD; for A549 SI: SI = IC50 HaCaT/IC50 A549
Method: (§3) Additionally, to assess the selectivity of these compounds toward cancer cells, we included an immortalized keratinocyte cell line from adult human skin (HaCaT) in the antiproliferative activity tests. Doxorubicin served as the reference anticancer drug.
(§4) The culture media were enriched with 10% fetal bovine serum (FBS, Sigma-Aldrich, St. Louis, MO, USA), 20 mM HEPES (Biowest, Nuaillé, France), and antibiotics (100 U/mL penicillin and 100 μg/mL streptomycin) obtained from Gibco (Grand Island, NY, USA). The cells were maintained in a humidified incubator at 37 °C with 5% CO2 until they reached 80–90% confluence, after which they were used for further experiments.
(§5) To assess the cytotoxicity, the cells (0.5 × 10^4/well) were plated in 96-well plates and allowed to adhere for 24 h. The MTT (3-(4,5-dimethylthiazol-2-yl)-2,5-diphenyltetrazolium bromide) assay was used to evaluate the cytotoxic effects of IVR bioconjugates on all tested cell lines. After 24 h incubation, cells were exposed to varying concentrations (1 to 100 μM) of the test compounds for 72 h. Following the treatment, the medium was discarded, and a 0.5 mg mL^–1 MTT solution was added to each well and incubation was continued for another 4 h. Mitochondrial enzyme activity facilitated the formation of formazan crystals, which were subsequently dissolved in DMSO-isopropanol (1:1, v/v), producing a violet-colored solution. A 100 μL aliquot of this solution was transferred to the well, and absorbance was recorded at 570 nm using a MultiscanGo spectrophotometer (ThermoFisher Scientific, Carlsbad, CA, USA).
(§6) Cytotoxicity was quantified by comparing the absorbance of the treated cells to that of untreated controls using the formula: [A]/[B] × 100, where [A] represents the absorbance of the treated sample and [B] corresponds to the absorbance of the control sample. A decrease in MTT levels reflects a decrease in cell viability.

[4] = test system: HCT-116, human primary colon cancer cell line; assay: Antiproliferative activity, MTT assay; format: cell-based; conditions: for IC50: Homo sapiens, HCT-116, 72 h, MTT, mean ± SD; for HCT-116 SI: SI = IC50 HaCaT/IC50 HCT-116
Method: as §3, §4, §5, §6

[5] = test system: MDA-MB-231, human triple-negative breast cancer cell line; assay: Antiproliferative activity, MTT assay; format: cell-based; conditions: for IC50: Homo sapiens, MDA-MB-231, 72 h, MTT, mean ± SD; for MDA-MB-231 SI: SI = IC50 HaCaT/IC50 MDA-MB-231
Method: as §3, §4, §5, §6

[6] = test system: PC3, human metastatic prostate cancer cell line; assay: Antiproliferative activity, MTT assay; format: cell-based; conditions: for IC50: Homo sapiens, 72 h, MTT, mean ± SD; for PC3 SI: SI = IC50 HaCaT/IC50 PC3
Method: as §3, §4, §5, §6

[7] = test system: HaCaT, human immortalized keratinocyte cell line; assay: Cytotoxicity toward normal cells, MTT assay; format: cell-based; conditions: 72 h, mean ± SD
Method: as §3, §4, §5, §6

SMILES	selectivity GI50 ratio [1]	GI50 [2]	GI50 [1]	IC50 [3]	A549 SI [3]	IC50 [4]	HCT-116 SI [4]	IC50 [5]	MDA-MB-231 SI [5]	IC50 [6]	PC3 SI [6]	IC50 [7]
CC[n+]1c(-c2ccccc2)c2cc(N)ccc2c2ccc(N)cc21 [ethidium bromide, reference compound]	202	9.3 ± 2.6 µM										
C=C[C@H]1CN2CC[C@H]1C[C@@H]2[C@@H](OC(=O)O[C@@H]1/C(C)=C/C[C@@H]2C[C@@H](C[C@]3(CC[C@H](C)[C@@H]([C@@H](C)CC)O3)O2)OC(=O)[C@@H]2C=C(C)[C@@H](O)[C@H]3OC/C(=C\C=C\[C@@H]1C)[C@]32O)c1ccnc2ccc(OC)cc12 [compound 5, Ivermectin–Quinidine Conjugate]	17.6	22.9 ± 11.2 µM	1.3 ± 0.4 µM	42.3 ± 0.5 µM	0.4	13.8 ± 3.5 µM	1.1	10.1 ± 1.4 µM	1.5	12.4 ± 2.1 µM	1.2	14.9 ± 1.6 µM
Cc1ncc([N+](=O)[O-])n1CCO [metronidazole, reference compound]	∼1.0	> 100 µM		> 100 µM	∼1.0	> 100 µM	∼1.0	14.9 ± 3.9 µM	>6.7	57 ± 6.1 µM	>1.8	> 100 µM
Cc1ccc(C(=O)Nc2ccc(S(=O)(=O)O)c3cc(S(=O)(=O)O)cc(S(=O)(=O)O)c23)cc1NC(=O)c1cccc(NC(=O)Nc2cccc(C(=O)Nc3cc(C(=O)Nc4ccc(S(=O)(=O)O)c5cc(S(=O)(=O)O)cc(S(=O)(=O)O)c45)ccc3C)c2)c1 [suramin, reference compound]		> 100 µM	0.039 ± 0.004 µM									
CC[C@H](C)[C@H]1O[C@]2(CC[C@@H]1C)C[C@@H]1C[C@@H](C/C=C(\C)[C@@H](OC(=O)N[C@H]3CCc4cc(OC)c(OC)c(OC)c4-c4ccc(SC)c(=O)cc43)[C@@H](C)/C=C/C=C3\CO[C@@H]4[C@H](O)C(C)=C[C@@H](C(=O)O1)[C@]34O)O2 [compound 8]	7.2	10.1 ± 4.9 µM	1.4 ± 0.5 µM	12.4 ± 2.6 µM	>8.1	7.5 ± 1.6 µM	>13.3	6.6 ± 0.6 µM	>15.2	85.1 ± 9.8 µM	>1.2	> 100 µM
C=C[C@H]1C[N@@]2CC[C@H]1C[C@H]2[C@H](O)c1ccnc2ccc(OC)cc12 [quinine, reference compound]		> 100 µM	1.1 ± 0.3 µM	56.4 ± 3.2 µM		32.8 ± 3.8 µM		54.4 ± 7 µM		56.3 ± 7.2 µM		> 100 µM
C=C[C@H]1CN2CC[C@H]1C[C@H]2[C@H](OC(=O)O[C@@H]1/C(C)=C/C[C@@H]2C[C@@H](C[C@]3(CC[C@H](C)[C@@H]([C@@H](C)CC)O3)O2)OC(=O)[C@@H]2C=C(C)[C@@H](O)[C@H]3OC/C(=C\C=C\[C@@H]1C)[C@]32O)c1ccnc2ccccc12 [compound 7, Ivermectin–Cinchonidine Conjugate]	20.5	47.2 ± 3.7 µM	2.3 ± 0.3 µM	13.6 ± 1.1 µM	3.7	20.1 ± 3.7 µM	2.5	22.4 ± 1.2 µM	2.2	7.2 ± 3.8 µM	7.0	50.3 ± 4.9 µM
C=C(C)C1CCC2(C(=O)OCc3cn(CC(=O)OC4C(C)=CCC5CC(CC6(CCC(C)C(C(C)CC)O6)O5)OC(=O)C5C=C(C)C(O)C6OCC(=CC=CC4C)C56O)nn3)CCC3(C)C(CCC4C5(C)CCC(O)C(C)(C)C5CCC43C)C12 (stereo not shown) [compound 15, Ivermectin–Betulinic Acid Conjugate]	>4.6	> 100 µM	21.9 ± 2.1 µM	> 100 µM	∼1.0	70.1 ± 6.4 µM	>1.4	> 100 µM	∼1.0	93.9 ± 6.4 µM	>1.1	> 100 µM
C=C[C@H]1C[N@@]2CC[C@H]1C[C@@H]2[C@@H](O)c1ccnc2ccccc12 [cinchonine, reference compound]	>58.8	> 100 µM	1.7 ± 0.6 µM	> 100 µM	∼1.0	78.2 ± 5.8 µM	>1.3	65.3 ± 2.8 µM	>1.5	74.3 ± 5.4 µM	>1.3	> 100 µM
O=c1[nH]c(=O)n([C@H]2C[C@H](O)[C@@H](CO)O2)cc1F [floxuridine, reference compound]	>45.5	> 100 µM	2.2 ± 0.4 µM	26.4 ± 3.8 µM	0.9	11.7 ± 4.2 µM	2.1	22.2 ± 3.4 µM	1.1	15.7 ± 3.3 µM	1.5	24.3 ± 7.3 µM
C=C(C)[C@@H]1CC[C@]2(C(=O)O)CC[C@]3(C)[C@H](CC[C@@H]4[C@@]5(C)CC[C@H](O)C(C)(C)[C@@H]5CC[C@]43C)[C@@H]12 [betulinic acid, reference compound]	2.8	42.5 ± 2.5 µM	15.4 ± 4.4 µM	98.1 ± 3.1 µM	>1.0	80.1 ± 6.1 µM	>1.2	46.5 ± 4.6 µM	>2.2	66.6 ± 2.3 µM	>1.5	> 100 µM
C=C[C@H]1CN2CC[C@H]1C[C@H]2[C@H](O)c1ccnc2ccccc12 [cinchonidine, reference compound]	>47.6	> 100 µM	2.1 ± 0.6 µM	> 100 µM	∼1.0	87.1 ± 12.1 µM	>1.1	> 100 µM	∼1.0	86.7 ± 3.9 µM	>1.2	> 100 µM
C=C[C@H]1C[N@@]2CC[C@H]1C[C@@H]2[C@@H](O)c1ccnc2ccc(OC)cc12 [quinidine, reference compound]		> 100 µM	0.32 ± 0.04 µM	55.8 ± 5.3 µM		67.4 ± 8.9 µM		76.2 ± 4.6 µM		86.1 ± 1.2 µM		> 100 µM
C[C@H]1[C@H](OC(=O)CCC(=O)O)O[C@@H]2O[C@@]3(C)CC[C@H]4[C@H](C)CC[C@@H]1[C@@]24OO3 [artesunate, reference compound]	8.6	30.8 ± 9 µM	3.6 ± 0.2 µM	24 ± 6.9 µM	0.2	37.8 ± 4.2 µM	0.2	12.6 ± 3.9 µM	0.5	48.5 ± 5.7 µM	0.1	5.7 ± 0.1 µM
Cc1cn([C@H]2C[C@H](N=[N+]=[N-])[C@@H](CO)O2)c(=O)[nH]c1=O [azidothymidine, reference compound]	>5.2	> 100 µM	> 10 µM	72.1 ± 11.6 µM	>1.4	60.2 ± 9.7 µM	>1.7	52.2 ± 4.1 µM	>1.9	64.3 ± 3.7 µM	>1.6	> 100 µM
COc1cccc2c1C(=O)c1c(O)c3c(c(O)c1C2=O)C[C@@](O)(C(=O)CO)C[C@@H]3O[C@H]1C[C@H](N)[C@H](O)[C@H](C)O1 [doxorubicin, reference compound]				0.63 ± 0.2 µM		0.6 ± 0.02 µM		1.83 ± 0.1 µM		0.6 ± 0.02 µM		0.29 ± 0.1 µM
